Converted amounts (≈) assume the structure as drawn.
Assays:
Type in all cases: functional
Klebsiella pneumoniae [1] = experiment: Antibacterial activity against extended-spectrum beta-lactamase producing Klebsiella pneumoniae clinical isolate by broth microdilution method
Citrobacter koseri = experiment: Antibacterial activity against Citrobacter diversus clinical isolate by broth microdilution method
Pseudomonas aeruginosa = experiment: Antibacterial activity against Pseudomonas aeruginosa clinical isolate by broth microdilution method
Escherichia coli = experiment: Antibacterial activity against Escherichia coli clinical isolate by broth microdilution method
Klebsiella pneumoniae [2] = experiment: Antibacterial activity against Klebsiella pneumoniae clinical isolate by broth microdilution method
Morganella morganii = experiment: Antibacterial activity against Morganella morganii clinical isolate by broth microdilution method
Serratia marcescens = experiment: Antibacterial activity against Serratia marcescens clinical isolate by broth microdilution method
Proteus vulgaris = experiment: Antibacterial activity against Proteus vulgaris clinical isolate by broth microdilution method
Klebsiella oxytoca = experiment: Antibacterial activity against Klebsiella oxytoca clinical isolate by broth microdilution method
Salmonella sp. = experiment: Antibacterial activity against Salmonella sp. by broth microdilution method
Acinetobacter sp. = experiment: Antibacterial activity against Acinetobacter sp. by broth microdilution method
Providencia rettgeri = experiment: Antibacterial activity against Providencia rettgeri clinical isolate by broth microdilution method
Klebsiella aerogenes = experiment: Antibacterial activity against Enterobacter aerogenes clinical isolate by broth microdilution method
Burkholderia cepacia = experiment: Antibacterial activity against Burkholderia cepacia clinical isolate by broth microdilution method
Citrobacter freundii = experiment: Antibacterial activity against Citrobacter freundii clinical isolate by broth microdilution method
[3] = tested on: Stenotrophomonas maltophilia; experiment: Antibacterial activity against Stenotrophomonas maltophilia clinical isolate by broth microdilution method
Shigella sp. = experiment: Antibacterial activity against Shigella sp. by broth microdilution method
Proteus mirabilis = experiment: Antibacterial activity against Proteus mirabilis clinical isolate by broth microdilution method
Enterobacter cloacae = experiment: Antibacterial activity against Enterobacter cloacae clinical isolate by broth microdilution method
Haemophilus influenzae = experiment: Antibacterial activity against Haemophilus influenzae clinical isolate by broth microdilution method
Moraxella catarrhalis = experiment: Antibacterial activity against Moraxella catarrhalis clinical isolate by broth microdilution method
Enterococcus faecium [4] = experiment: Antibacterial activity against linezolid-resistant Enterococcus faecium 03B1077 by broth microdilution method
Staphylococcus aureus [5] = experiment: Antibacterial activity against linezolid-resistant Staphylococcus aureus 01A1221 by broth microdilution method
Enterococcus faecium [6] = experiment: Antibacterial activity against linezolid-resistant Enterococcus faecium 03B1074 by broth microdilution method
Staphylococcus aureus [7] = experiment: Antibacterial activity against linezolid-resistant Staphylococcus aureus 01A1220 by broth microdilution method
Enterococcus faecalis [8] = experiment: Antibacterial activity against linezolid-resistant Enterococcus faecalis 03A1128 by broth microdilution method
Enterococcus faecium [9] = experiment: Antibacterial activity against linezolid-resistant Enterococcus faecium 03B1075 by broth microdilution method
Enterococcus faecium [10] = experiment: Antibacterial activity against linezolid-resistant Enterococcus faecium 03B1073 by broth microdilution method
Enterococcus faecium [11] = experiment: Antibacterial activity against linezolid-resistant Enterococcus faecium 03B1076 by broth microdilution method
Enterococcus faecium [12] = experiment: Antibacterial activity against linezolid-resistant Enterococcus faecium 03B1078 by broth microdilution method
Enterococcus faecalis [13] = experiment: Antibacterial activity against […] Enterococcus faecalis ATCC 29212 by broth microdilution method
Staphylococcus aureus [14] = experiment: Antibacterial activity against […] Staphylococcus aureus ATCC 29213 by broth microdilution method

Q: `CC(C)(O/N=C(\C(=O)N[C@@H]1C(=O)N2C(C(=O)[O-])=C(C[n+]3ccccc3)CS[C@H]12)c1csc(N)n1)C(=O)O` [CEFTAZIDIME] was tested. Which MIC50 (Klebsiella pneumoniae [1]) did it give?
A: 0.5 µg/mL (≈ 0.915 µM)

Q: And the MIC90 (Klebsiella pneumoniae [1])?
A: > 64 µg/mL

Q: And the MIC50 (Citrobacter koseri)?
A: 0.5 µg/mL (≈ 0.915 µM)

Q: And the MIC90 (Citrobacter koseri)?
A: > 64 µg/mL

Q: What about the MIC50 (Pseudomonas aeruginosa) of the same molecule?
A: 16 µg/mL (≈ 29.3 µM)

Q: What about the MIC90 (Pseudomonas aeruginosa) of the same molecule?
A: > 64 µg/mL

Q: And the MIC50 (Escherichia coli)?
A: 0.5 µg/mL (≈ 0.915 µM)

Q: And the MIC90 (Escherichia coli)?
A: > 64 µg/mL

Q: What about the MIC50 (Klebsiella pneumoniae [2]) of the same molecule?
A: 0.5 µg/mL (≈ 0.915 µM)

Q: What about the MIC90 (Klebsiella pneumoniae [2]) of the same molecule?
A: > 64 µg/mL

Q: What about the MIC50 (Morganella morganii) of the same molecule?
A: 0.5 µg/mL (≈ 0.915 µM)

Q: What about the MIC90 (Morganella morganii) of the same molecule?
A: > 64 µg/mL

Q: What about the MIC50 (Serratia marcescens) of the same molecule?
A: 0.5 µg/mL (≈ 0.915 µM)

Q: And the MIC90 (Serratia marcescens)?
A: > 64 µg/mL

Q: What about the MIC50 (Proteus vulgaris) of the same molecule?
A: 0.5 µg/mL (≈ 0.915 µM)

Q: What about the MIC90 (Proteus vulgaris) of the same molecule?
A: > 64 µg/mL

Q: What about the MIC50 (Klebsiella oxytoca) of the same molecule?
A: 0.5 µg/mL (≈ 0.915 µM)

Q: What about the MIC90 (Klebsiella oxytoca) of the same molecule?
A: > 64 µg/mL

Q: What about the MIC50 (Salmonella sp.) of the same molecule?
A: 0.5 µg/mL (≈ 0.915 µM)

Q: And the MIC90 (Salmonella sp.)?
A: > 64 µg/mL

Q: What about the MIC50 (Acinetobacter sp.) of the same molecule?
A: 16 µg/mL (≈ 29.3 µM)

Q: And the MIC90 (Acinetobacter sp.)?
A: > 64 µg/mL

Q: What about the MIC50 (Providencia rettgeri) of the same molecule?
A: 0.5 µg/mL (≈ 0.915 µM)

Q: And the MIC90 (Providencia rettgeri)?
A: > 64 µg/mL

Q: And the MIC50 (Klebsiella aerogenes)?
A: 0.5 µg/mL (≈ 0.915 µM)

Q: And the MIC90 (Klebsiella aerogenes)?
A: > 64 µg/mL

Q: What about the MIC50 (Burkholderia cepacia) of the same molecule?
A: 16 µg/mL (≈ 29.3 µM)

Q: And the MIC90 (Burkholderia cepacia)?
A: > 64 µg/mL

Q: And the MIC50 (Citrobacter freundii)?
A: 0.5 µg/mL (≈ 0.915 µM)

Q: What about the MIC90 (Citrobacter freundii) of the same molecule?
A: > 64 µg/mL

Q: What about the MIC50 [3] of the same molecule?
A: 16 µg/mL (≈ 29.3 µM)

Q: And the MIC90 [3]?
A: > 64 µg/mL

Q: And the MIC50 (Shigella sp.)?
A: 0.5 µg/mL (≈ 0.915 µM)

Q: What about the MIC90 (Shigella sp.) of the same molecule?
A: > 64 µg/mL

Q: What about the MIC50 (Proteus mirabilis) of the same molecule?
A: 0.5 µg/mL (≈ 0.915 µM)

Q: And the MIC90 (Proteus mirabilis)?
A: > 64 µg/mL

Q: And the MIC50 (Enterobacter cloacae)?
A: 0.5 µg/mL (≈ 0.915 µM)

Q: And the MIC90 (Enterobacter cloacae)?
A: > 64 µg/mL

Q: With `CC1(C)S[C@@H]2[C@H](NC(=O)[C@H](N)c3ccc(O)cc3)C(=O)N2[C@H]1C(=O)O` [AMOXICILLIN] as the molecule, how does the MIC50 (Haemophilus influenzae) read?
A: 2 µg/mL (≈ 5.47 µM)

Q: And the MIC90 (Haemophilus influenzae)?
A: 32 µg/mL (≈ 87.6 µM)

Q: And the MIC50 (Moraxella catarrhalis)?
A: 1 µg/mL (≈ 2.74 µM)

Q: What about the MIC90 (Moraxella catarrhalis) of the same molecule?
A: 8 µg/mL (≈ 21.9 µM)

Q: `O=C(N[C@H](CO)[C@H](O)c1ccc([N+](=O)[O-])cc1)C(Cl)Cl` [CHLORAMPHENICOL] was tested. Which MIC (Enterococcus faecium [4]) did it give?
A: 8 µg/mL (≈ 24.8 µM)

Q: What about the MIC (Staphylococcus aureus [5]) of the same molecule?
A: 32 µg/mL (≈ 99 µM)

Q: And the MIC (Enterococcus faecium [6])?
A: 32 µg/mL (≈ 99 µM)

Q: What about the MIC (Staphylococcus aureus [7]) of the same molecule?
A: > 32 µg/mL

Q: What about the MIC (Enterococcus faecalis [8]) of the same molecule?
A: > 32 µg/mL

Q: And the MIC (Enterococcus faecium [9])?
A: 32 µg/mL (≈ 99 µM)

Q: And the MIC (Enterococcus faecium [10])?
A: 8 µg/mL (≈ 24.8 µM)

Q: What about the MIC (Enterococcus faecium [11]) of the same molecule?
A: 32 µg/mL (≈ 99 µM)

Q: What about the MIC (Enterococcus faecium [12]) of the same molecule?
A: 16 µg/mL (≈ 49.5 µM)

Q: What about the MIC (Enterococcus faecalis [13]) of the same molecule?
A: 8 µg/mL (≈ 24.8 µM)

Q: And the MIC (Staphylococcus aureus [14])?
A: 8 µg/mL (≈ 24.8 µM)

— ChEMBL document CHEMBL1255373, “In vitro antibacterial activity of CE-156811, a novel analog derived from hygromycin A” (2008)
